# Like-named read-outs stand apart in the source and are kept apart here.
# Columns and labels:
# [1] = tested on: P. falciparum Dd2; assay: SYBR green I asexual blood stage proliferation assay (96 h); format: cell-based, Plasmodium falciparum; conditions: Plasmodium falciparum, DD2, Sybr Green I, 11-pt dose response, 96hr; for IC50: read-out: CDD P. falciparum Sybr Green I ABS 11-pt Reconfirmation Dose Response (96hr): IC50; for Emax: read-out: CDD P. falciparum Sybr Green I ABS 11-pt Reconfirmation Dose Response (96hr): Maximum inhibition (%)
# [2] = tested on: P. falciparum Dd2 (PfLuc) line expressing firefly luciferase, asexual blood stage; assay: microbe, parasite or virus in culture; format: cell-based, Plasmodium falciparum; conditions: Plasmodium falciparum
# [3] = DD2, read-out: CDD P. falciparum Luciferase ABS 11-pt Reconfirmation Dose Response (48hr): IC50 (μM), 11-pt dose response, 48hr
# [4] = DD2, 8-pt dose response, 96hr, read-out: CDD P. falciparum Luciferase ABS 8-pt Reconfirmation Dose Response (96hr): IC50
# [5] = DD2, 8-pt dose response, 96hr, read-out: CDD P. falciparum Luciferase ABS 8-pt Reconfirmation Dose Response (96hr): Maximum inhibition (%)
# [6] = DD2, 11-pt dose response, 96hr, read-out: CDD P. falciparum Luciferase ABS 11-pt Reconfirmation Dose Response (96hr): IC50
# [7] = DD2, 11-pt dose response, 96hr, read-out: CDD P. falciparum Luciferase ABS 11-pt Reconfirmation Dose Response (96hr): Maximum inhibition (%)
# [8] = 96 h incubation, Dd2 luciferase, read-out: 96 hour Pfluc IC50
# [9] = DD2, 11-pt dose response, 48hr, read-out: CDD P. falciparum Luciferase ABS 11-pt Reconfirmation Dose Response (48hr): Maximum inhibition (%)
SMILES,IC50 [1],Emax [1],"IC50 [2, 3]","IC50 [2, 4]","Emax [2, 5]","IC50 [2, 6]","Emax [2, 7]","IC50 [2, 8]","Emax [2, 9]"
CC(NCC1CCN(CCO)CC1)c1ccc(OC(F)(F)F)cc1 (stereo not shown) [DDD01073716],2880 nM,95.9%,3.68 µM,0.46 µM,95.5%,0.546 µM,99.2%,0.55 µM,
Cc1cccc(C)c1Nc1noc2c1CN(C(=O)c1ccnn1C)CC2 [DDD01056796],266 nM,96.3%,0.425 µM,0.14 µM,96.7%,0.328 µM,101%,,98.3%
Cc1cccc(Nc2cccc(C3CCCN(Cc4ncc[nH]4)C3)n2)n1 (stereo not shown) [DDD01059475],965 nM,92.2%,1.69 µM,1.07 µM,95.8%,> 1.39 µM,100%,,98.9%
c1ccn2c(C3CCCN(c4ncnc5c4CCNC5)C3)nnc2c1 (stereo not shown) [DDD01252518],> 12500 nM,42%,> 1.39 µM,0.26 µM,90.8%,0.449 µM,97.6%,,64.8%
c1ccc(C[C@H]2CN(C3CCOCC3)CC[C@H]2OCC2CC2)cc1 [DDD01028772],7170 nM,69.9%,> 12.5 µM,0.69 µM,87%,1.04 µM,91.3%,,70.2%
Cc1ccc(CNC2CC3(CCN(CCO)CC3)c3ccccc32)s1 (stereo not shown) [DDD01082017],2900 nM,89.2%,3.82 µM,0.41 µM,91%,1.07 µM,98%,,80.4%
COc1cccc(CNCc2ccc(F)cc2Cl)c1O [DDD01038249],> 4160 nM,92.8%,> 4.16 µM,0.94 µM,87.2%,2.78 µM,95.4%,,36%
Cc1nn(C)cc1C1=NS(=O)(=O)N(C)C(C(=O)Nc2ccc(Cl)cc2)=C1 [DDD01058696],705 nM,98.7%,1.23 µM,0.34 µM,96.1%,0.511 µM,101%,,100%
CN(Cc1cccc(O)c1)CC1CCCN(CCc2ccc(Cl)cc2)C1 (stereo not shown) [DDD01257948],802 nM,98%,2.24 µM,0.67 µM,94.6%,1.38 µM,99.5%,,97.4%
COCCC1(CNC(=O)Nc2ccnc(C)c2)CCCC1 [DDD01077091],> 12500 nM,47.9%,> 12.5 µM,1.04 µM,79.6%,> 1.39 µM,82%,,48.9%
Cc1ccc(C2(CN3CCN(Cc4cnc(C)n4C)CC3)CC2)cc1 [DDD01059041],1320 nM,88.5%,1.95 µM,0.25 µM,,0.532 µM,,,77.8%
CN1CCN(CC(NCc2ccc(F)c(F)c2)c2ccccc2)CC1 (stereo not shown) [DDD01069631],4410 nM,85.4%,5.37 µM,0.58 µM,89.5%,0.913 µM,94.6%,0.91 µM,78.3%
Cc1ccsc1CN(CCCN(C)C)Cc1ccccn1 [DDD01060996],> 12500 nM,46.2%,> 12.5 µM,0.55 µM,79.6%,3.57 µM,82.3%,,51.6%

# — PMC7155171, “Probing the Open Global Health Chemical Diversity Library for Multistage-Active Starting Points for Next-Generation Antimalarials” (ACS Infectious Diseases, 2020)
